Measurements published in paper PMC7265491, “Inhibition of LIPG phospholipase activity suppresses tumor formation of human basal-like triple-negative breast cancer” (Scientific Reports, 2020).

Biological target: T1, LIPG (endothelial lipase) (Homo sapiens, UniProt Q9Y5X9)
T1 construct: LIPG overexpressed in MDA-MB-468 cells
T1 sequence (Q9Y5X9 21-500): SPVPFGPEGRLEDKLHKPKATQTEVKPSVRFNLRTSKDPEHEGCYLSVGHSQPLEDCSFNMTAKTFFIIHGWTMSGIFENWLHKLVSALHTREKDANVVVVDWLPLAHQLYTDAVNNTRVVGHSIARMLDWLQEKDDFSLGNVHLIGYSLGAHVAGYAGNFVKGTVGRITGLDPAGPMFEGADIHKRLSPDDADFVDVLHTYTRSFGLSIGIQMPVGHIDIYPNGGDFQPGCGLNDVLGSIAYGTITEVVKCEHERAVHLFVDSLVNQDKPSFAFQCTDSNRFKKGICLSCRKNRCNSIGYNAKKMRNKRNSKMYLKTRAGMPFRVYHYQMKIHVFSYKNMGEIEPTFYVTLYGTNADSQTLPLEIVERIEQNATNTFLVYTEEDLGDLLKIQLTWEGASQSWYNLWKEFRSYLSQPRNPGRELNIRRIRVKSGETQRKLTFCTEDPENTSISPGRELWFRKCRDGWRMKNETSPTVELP
Assay: cell-based fluorogenic phospholipase A1 assay (PED-A1 substrate) with LIPG-overexpressing MDA-MB-468 cells, parental-cell background subtracted

An IC50 of 2170 nM was found for O=C(O)c1cc(C(F)(F)F)ccc1N1CC[C@H](OCc2ccccn2)C1 [XEN445] in this work.
